Measured values published in patent EP3666760B1, “5-THIOISTIDINE COMPOUNDS AND METHYLATED DERIVATIVES (OVOTHIOLS) AS INHIBITORS OF GAMMA-GLUTAMYL-TRANSPEPTIDASE (GGT) ACTIVITY” (Stazione Zoologica "Anton Dohrn", priority 2018, dated 2020).
Where two headings read alike, the source gives them in different places.

Key:
GGT = GGT (Equus caballus, UniProt A0A9L0SYL6); assay: Kinetics of GGT inhibition (Ki) varying donor GpNA or acceptor Gly-Gly concentration; assay type: biochemical, horse; settings: for type of inhibition: both with respect to the acceptor substrate and to the donor substrate, Vmax decreases, km almost unchanged; for Ki: average of Michaelis-Menten and Lineweaver-Burk
Description: (§1) GGT activity assay: GGT activity was determined by a colorimetric test. The analysis buffer contains 100 mM Tris-HCl pH 7.8 or PBS 1X pH 7.4. Each reaction contains 1 mM of γ-glutamyl-para-nitroanilide (GpNA) as a donor substrate and 40 mM glycyl-glycine (glygly) as an acceptor substrate. The enzyme GGT purified from murine tissues or human cells, or from equine sources (purchased from Sigma) was added at the end to start the test. The formation of the product, p-nitroaniline, was continuously monitored at room temperature at 405 nm using a Bio-Rad 680 microplate reader with the Microplate Manager 5.2 software (Bio-Rad). One unit of GGT activity was defined as the amount of GGT that released 1 µmοl of p-nitroaniline/min at room temperature. The molecules tested as inhibitors, Erg, DON and DTT were purchased by Sigma Aldrich.
(§2) The enzymatic activity assays were carried out using the Tate & Meister spectrophotometric assay, using the γ-glutamyl-para-nitroanilide chromogen (GpNA) as a donor substrate, glycyl-glycine as a substrate and a purified commercial GGT solution as a biocatalyst from horse (EqGGT) with a high % identity with the human one. These assays were also performed in the presence of GGT isolated directly from the hepatic mouse tissues and/or from human cell cultures (hGGT). The inhibition of EqGGT and hGGT by 5-thio and ovothiol A was compared with that of Erg and the GGT DON commercial inhibitor. […] Instead, the already known GGT inhibitors are toxic at much lower concentrations.
The inhibition constants Ki and GGT inactivation rate for 5-thio and ovothiol A were determined by varying both the concentrations of the GpNA donor substrate and maintaining the Gly-Gly acceptor concentrations fixed and vice versa, as shown in Figure 2. Ki (dissociation constant related to E) was calculated as a function of Vmax. For all the compounds the Vmax decreases as the concentration of inhibitor increases, while the km remains almost unchanged.

keratinocytes HaCat = assay: Cell toxicity in human cell lines; assay type: cell-based; settings: up to concentrations of 200 µM
EqGGT = EqGGT (Equus caballus, UniProt A0A9L0SYL6); assay: GGT activity assay (colorimetric, GpNA donor / glycyl-glycine acceptor), IC50; assay type: biochemical, horse
Description: as §1, §2

HEK293 = assay: Cell toxicity in human cell lines; assay type: cell-based; settings: up to concentrations of 200 µM; HEK293 (renal embryonic origin)
[1] = read-out: Ki (GpNA), varying donor substrate GpNA, Gly-Gly fixed

Sequence of EqGGT (A0A9L0SYL6 entry or part of it): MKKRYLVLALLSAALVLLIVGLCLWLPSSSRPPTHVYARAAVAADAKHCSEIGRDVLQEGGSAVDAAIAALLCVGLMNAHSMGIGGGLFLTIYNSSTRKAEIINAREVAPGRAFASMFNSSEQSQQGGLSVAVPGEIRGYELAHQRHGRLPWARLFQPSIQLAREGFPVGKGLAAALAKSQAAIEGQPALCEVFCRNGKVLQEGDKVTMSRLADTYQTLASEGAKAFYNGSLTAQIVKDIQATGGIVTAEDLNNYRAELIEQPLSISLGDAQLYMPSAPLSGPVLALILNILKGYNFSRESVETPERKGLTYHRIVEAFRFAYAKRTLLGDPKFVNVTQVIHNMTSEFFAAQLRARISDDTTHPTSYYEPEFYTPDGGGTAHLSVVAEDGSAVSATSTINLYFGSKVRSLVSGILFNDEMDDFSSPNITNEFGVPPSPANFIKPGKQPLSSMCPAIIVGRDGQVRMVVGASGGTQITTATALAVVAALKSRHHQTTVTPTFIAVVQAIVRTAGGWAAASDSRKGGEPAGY
Sequence of GGT (A0A9L0SYL6 entry or part of it): as above

| Compound | type of inhibition (GGT) | Ki (GGT; varying acceptor substrate Gly-Gly, GpNA fixed, read-out: Ki (gly-gly)) [µM] | Ki (GGT; varying donor substrate GpNA, Gly-Gly fixed, read-out: Ki (GpNA)) [µM] | cell toxicity (keratinocytes HaCat) | IC50 (EqGGT; concentration inducing 50% inhibition of GGT activity, 1 mM GpNA, 40 mM glycyl-glycine, ovothiol A and 5-thio as disulfide, read-out: IC50) [µM] | times more active than Erg and DON in inhibiting GGT activity (EqGGT; disulfide forms) | cell toxicity (HEK293) | Ki (GGT; [1]) [µM] | Ki (GGT; read-out: Ki (gly-gly), varying acceptor substrate Gly-Gly, GpNA fixed) [µM] | IC50 (EqGGT) [µM] | IC50 (EqGGT; concentration inducing 50% inhibition of GGT activity, 1 mM GpNA, 40 mM glycyl-glycine, ovothiol A and 5-thio as disulfide) [µM] |
| --- | --- | --- | --- | --- | --- | --- | --- | --- | --- | --- | --- |
| NC(Cc1[nH]cnc1SSc1nc[nH]c1CC(N)C(=O)O)C(=O)O (stereo not shown) | non-competitive inhibitors | 17.4 ± 6.1 | 6.9 ± 2.91 | no cell toxicity | 13 | 10-20 times | no cell toxicity |  |  |  |  |
| [N-]=[N+]=CC(=O)CC[C@H](N)C(=O)O [DON, 6-diazo-5-oxo norleucine, reference compound] |  |  |  |  |  |  |  | 156 ± 15.3 | 200 ± 62.7 | 250 |  |
| C[N+](C)(C)C(Cc1cnc(S)[nH]1)C(=O)[O-] (stereo not drawn) [Erg, N-alpha-trimethyl-2-thiohistidine, reference compound] | non-competitive inhibitors |  |  |  |  |  |  | 229 ± 53.9 |  |  | 277 |
